Reference: patent publication US6358538B1, “Method for protecting plants from fungus” (priority 1999, dated 2002)

Tested on: fungus
Description: Various fertilizer quality nitrate salts have been used to test this effect, particularly potassium nitrate, ammonium nitrate, calcium nitrate, and sodium nitrate.

Structure (SMILES): O=[N+]([O-])O [nitrate ions, nitrate]
- concentration of nitrate ions in the solution found to be generally effective (at the sprinkler/mist head, plants in open ground plots, approx. 10 pounds nitrate salts per acre in approx. 1,000 gallons of water): 700 parts per million of water
- effect on germination of fungal spores and subsequent development (weak solutions, fungi on ground surface and plant surfaces, under certain conditions): fungistatic effect
